According to US9181259B2 (LEO PHARMA A/S, priority 2012, dated 2015):
Where a name gives a salt, the structure may show the parent alone.

How the values were obtained:
[1] = Hepatic intrinsic clearance following incubation in human liver microsomes; type: in vitro ADME; settings: NADPH regenerating system, 0-30 min, 37 °C
Procedure: Hepatic Extraction Ratio from Hepatic Intrinsic Clearance Following Incubation in Human Liver Microsomes
The general procedure consists of an automated incubation system and LC-MS/MS analysis with human liver microsomes. Human liver microsomes are thawed rapidly in a waterbath at 37° C. and kept on ice until use. The human liver microsomes are diluted with 50 mM potassium phosphate buffer pH 7.4 to a protein concentration of 0.55 mg/mL. Test compounds and positive controls (Verapamil and Dextromethorphan, positive controls for CYP3A4 for CYP2D6 isoforms, respectively) are dissolved in methanol (or other appropriate solvent, if necessary) in order to obtain a 5 mM solution which is further diluted to the concentration of 50 μM. The stock solutions are prepared immediately before the test.
5 μL of 50 μM test compounds and controls are added to 445 μL-of the 0.55 mg/mL microsomes solution and the incubation mixture are pre-warmed at 37° C. for 5 minutes.
The incubation reactions are initiated by adding 50 μL of pre-warmed NADPH regenerating system to the incubation mixtures. 50 μL-aliquots will be taken from the incubation mixtures at: 0, 3, 6, 9, 15 and 30 minutes and the reactions are stopped by adding 100 μL of ACN containing Rolipram, used as generic Internal Standard (1S). Samples are then diluted with 120 μL of Milli-Q water and centrifuged at 3000 rpm for 10 minutes, prior the LC-MS/MS analysis.
The integrated peak areas for test compounds at the selected time points are divided by the respective peak areas of the IS and the percent of parent remaining is calculated by normalizing the peak area ratio of parent to IS at 0 min. Observed rate constant (kobs) for parent degradation is calculated by determining the slope of the line of the graph of the natural log of percentage parent remaining versus time of incubation. From the rate of depletion (min-1) and volume of the incubation (mL), clearance is estimated. This is scaled for the protein in the incubation relative to that in the intact liver, for all species (mL/min/g liver).
Values for the Human in vitro Clint are expressed as mL/min/g liver.
Assuming a liver weight of 25.7 g/kg and a liver blood flow of 20.7 mL/min/kg, the hepatic extraction ratio, Eh, can be derived from the Human in vitro Clint:
E.g. a Human in vitro Clint of 2.4 mL/min/g liver corresponds to a hepatic extraction ratio of 75%.
Some compounds of the present invention were tested according to example 121.

NK1 receptor = target: T1, NK1 receptor (Homo sapiens, UniProt P25103); experiment: NK1 receptor mediated intracellular [Ca2+] mobilization in U251 MG cells using FLIPR; type: cell-based; settings: antagonist potency against Substance P (EC80), normalized to 100 nM Aprepitant, read-out: U251MG (FLIPR pIC50) (converted)
T1 construct: Measurement of NK1 Receptor Mediated Intracellular [Ca^2+]; Mobilization in U251 MG Cells Using FLIPR; endogenous in cells; host or cells: U251 MG cells
Procedure, shortened: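 Fluo-4-loaded U251 MG cells were preincubated with compound (0.5% DMSO final), with any agonist effect read for 5 min, then 10 min more at 37 °C before Substance P at EC80. Peak FLIPR fluorescence change was read, and IC50 came from a four-parameter fit as the midpoint between fitted top and bottom.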

T1 sequence (P25103 whole entry): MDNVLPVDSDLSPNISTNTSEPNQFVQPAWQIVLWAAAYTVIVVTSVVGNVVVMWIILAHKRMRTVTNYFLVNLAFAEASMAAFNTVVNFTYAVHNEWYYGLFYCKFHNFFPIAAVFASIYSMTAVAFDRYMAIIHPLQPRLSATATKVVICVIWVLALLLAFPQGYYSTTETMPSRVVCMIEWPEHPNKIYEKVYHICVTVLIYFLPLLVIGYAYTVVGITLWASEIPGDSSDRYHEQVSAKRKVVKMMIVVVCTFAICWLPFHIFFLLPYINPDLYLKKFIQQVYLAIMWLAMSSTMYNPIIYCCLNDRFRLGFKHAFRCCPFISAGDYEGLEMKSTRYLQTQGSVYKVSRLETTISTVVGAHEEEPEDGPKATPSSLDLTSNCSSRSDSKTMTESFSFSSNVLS

Row | Compound | Human in vitro Clint (mL/min/g liver) [1] [mL/min/g liver] | IC50 (NK1 receptor) [nM]
1 | Cc1ccccc1[C@H]1[C@@H]2CC(CCO)(CCO)C(=O)N2CCN1C(=O)N(C)Cc1cc(F)cc(C(F)(F)F)c1 [Compound 76, (1S,8aS)-N-(3-fluoro-5-(trifluoromethyl)benzyl)-7,7-bis(2-hydroxyethyl)-N-methyl-6-oxo-1-o-tolylhexahydropyrrolo[1,2-a]pyrazine-2(1H)-carboxamide] | 12 | 0.148
2 | Cc1ccccc1[C@H]1[C@@H]2CC(CCO)(CCO)C(=O)N2CCN1C(=O)N(C)[C@H](C)c1cc(C(F)F)cc(C(F)(F)F)c1 [Compound 97, (1S,8aS)-N-((R)-1-(3-(difluoromethyl)-5-(trifluoromethyl)phenyl)ethyl)-7,7-bis(2-hydroxyethyl)-N-methyl-6-oxo-1-o-tolylhexahydropyrrolo[1,2-a]pyrazine-2(1H)-carboxamide] | 14 | 0.0501
3 | Cc1ccccc1C1C2CCC(=O)N2CCN1C(=O)N(C)Cc1cc(F)cc(C(F)(F)F)c1 (single isomer, unassigned) [Compound 3, N-{[3-fluoro-5-(trifluoromethyl)phenyl]methyl}-N-methyl-1-(2-methylphenyl)-6-oxo-octahydropyrrolo[1,2-a]piperazine-2-carboxamide] | 9.5 | 1.38
4 | Cc1ccccc1[C@H]1[C@@H]2CC(CCO)(CCO)C(=O)N2CCN1C(=O)N(C)[C@@H](C)c1cc(F)cc(C(F)(F)F)c1 [Compound 92, (1S,8aS)-N-((S)-1-(3-fluoro-5-(trifluoromethyl)phenyl)ethyl)-7,7-bis(2-hydroxyethyl)-N-methyl-6-oxo-1-o-tolylhexahydropyrrolo[1,2-a]pyrazine-2(1H)-carboxamide] | 11 | 0.0158
5 | Cc1ccccc1[C@H]1[C@@H]2CC3(CCNCC3)C(=O)N2CCN1C(=O)N(C)[C@H](C)c1cc(C(F)(F)F)cc(C(F)(F)F)c1 [Compound 106, (1′S,8a′S)-N-((R)-1-(3,5-bis(trifluoromethyl)phenyl)ethyl)-N-methyl-6′-oxo-1′-o-tolyltetrahydro-1′H-spiro[piperidine-4,7′-pyrrolo[1,2-a]pyrazine]-2′(6′(6′H)-carboxamide, formic acid salt] | 0.19 | 0.115
6 | Cc1cc([C@@H](C)N(C)C(=O)N2CCN3C(=O)C4(CCOCC4)C[C@H]3[C@@H]2c2ccccc2C)cc(C(F)(F)F)c1 [Compound 101] | 6.9 | 0.0251
7 | Cc1ccccc1[C@H]1[C@@H]2CC(CCO)(CCO)C(=O)N2CCN1C(=O)N(C)[C@@H](C)c1cc(C(F)(F)F)cc(C(F)(F)F)c1 [Compound 99, (1S,8aS)-N-((S)-1-(3,5-bis(trifluoromethyl)phenyl)ethyl)-7,7-bis(2-hydroxyethyl)-N-methyl-6-oxo-1-o-tolylhexahydropyrrolo[1,2-a]pyrazine-2(1H)-carboxamide] | 5.4 | 0.166
8 | Cc1ccccc1[C@H]1[C@@H]2CC(CCO)(CCO)C(=O)N2CCN1C(=O)N(C)[C@H](C)c1cc(Cl)cc(C(F)(F)F)c1 [Compound 89, (1S,8aS)-N-((R)-1-(3-chloro-5-(trifluoromethyl)phenyl)ethyl)-7,7-bis(2-hydroxyethyl)-N-methyl-6-oxo-1-o-tolylhexahydropyrrolo[1,2-a]pyrazine-2(1H)-carboxamide] | 15 | 0.126
9 | Cc1ccccc1C1C2CC(CN3CCCC3)C(=O)N2CCN1C(=O)N(C)Cc1cc(C(F)(F)F)cc(C(F)(F)F)c1 (single isomer, unassigned) [Compound 30, N-{[3,5-bis(trifluoromethyl)phenyl]methyl}-N-methyl-1-(2-methylphenyl)-6-oxo-7-(pyrrolidin-1-ylmethyl)-octahydropyrrolo[1,2-a]piperazine-2-carboxamide] | 2.4 | 0.38
